Data set [1] concerns human CCK-2 receptor transfected A431 cells. Briefly: Biodistribution studies in CD1 nu/nu mice bearing CCK-2 receptor positive and mock A431 tumours. Type of data set: in vivo. Here is the method:
PP-F11N has been investigated according to the CD1 nu/nu mice model. […] FIG. 2 illustrates the biodistribution of PP-F11, PP-F11N and oxidized PP-F11 ox (oxidized PP-F11) after 4 hours in the athymic CD1 nu/nu mice model. Tumour positive: with human CCK-2 receptor transfected A431 cells on one side of the mouse; tumor negative: CCK-2 receptor negative A431 cells on the other side of the mouse. The effect of the higher tumor uptake by the exchange of methionine with norleucine is specifically apparent with compounds having the DGlu6 sequence, different from compounds having a sequence with DGLn6 which is referred to as PP-F10.
CD1 nu/nu mice were injected with 5×10^6 A431 cells. CCK-2 receptor positive A431 cells' were injected into one flank and mock cells on the other as an unspecific control. The tumors reach a weight of about 80 to 120 mg after about 10 days. 150-200 kBq (5 pmol) of the radiolabelled peptides were injected into the tail vein. Mice were killed by CO2 asphyxiation after defined time points post injection. The organs were dissected, weighted and the activity was measured. The % injected activity per gram (% i.A./g) was calculated. The animal experiments were approved by the local animal welfare committee and performed according to national regulations.

Data set [2] can be described thus: Stability of 177Lu-labelled mini-gastrin analogues in human serum/plasma, metabolites by HPLC. In kind it is in vitro ADME. To be noted: human serum, radio-labelled with 177Lu, compared with PP-F11, PP-F10N and PP-F10. Here is the method:
12 MBq of the radiolabelled compound was incubated in 2 mL fresh human plasma. A 40 μL probe was taken after 0, 1, 2, 18, 24, 48 and 72 h and added 200 μL (50% Methanol and 50% Acetonitril) in a Mini-UniPrep Filter. The solution is filtered after vortexing. 40 μL of the filtered solution is analyzed by HPLC.

Setting [3] is: biodistribution after 4 hours, athymic CD1 nu/nu mice.

Structures are written as SMILES.

For `CCCC[C@H](NC(=O)[C@H](Cc1c[nH]c2ccccc12)NC(=O)CNC(=O)[C@H](Cc1ccc(O)cc1)NC(=O)[C@H](C)NC(=O)[C@@H](CCC(=O)O)NC(=O)[C@@H](CCC(=O)O)NC(=O)[C@@H](CCC(=O)O)NC(=O)[C@@H](CCC(=O)O)NC(=O)[C@@H](CCC(=O)O)NC(=O)[C@@H](CCC(=O)O)NC(=O)CN1CCN(CC(=O)O)CCN(CC(=O)O)CCN(CC(=O)O)CC1)C(=O)N[C@@H](CC(=O)O)C(=O)N[C@@H](Cc1ccccc1)C(N)=O` [PP-F11N], in data set [1] (setting [3]), the “accumulation in the kidneys” value is listed as “very few” and the tumor-noise ratio entry is listed as “very favorable”. In addition, the tumor uptake result in data set [1] (biodistribution after 4 hours, athymic CD1 nu/nu mice, CCK-2 receptor positive A431 tumour) was “significant higher”. In addition, the tumor-to-kidney entry in data set [1] (mouse, in vivo) is “best”. Also, the pharmacologic stability result in data set [2] was “highest pharmacologic stability of all probands”.

Source of the values: patent US11623014B2, “Mini-gastrin analogue, in particular for use in CCK2 receptor positive tumour diagnosis and/or treatment” (Paul Scherrer Institut, priority 2013, dated 2023).
